From patent US5616123A, “Delivery of solid drug compositions” (Delab, priority 1995, dated 1997)

How the values were obtained:
[1] = cited from earlier work; for solubility: in words
[2] = plasma levels of BN 50730 after subcutaneous injection (FIGS. 13, 14); format: in vivo, rabbits
Description: These cylinders were injected subcutaneously into rabbits at a dosage of 2.0 mg/kg for a comparison study with BN 50730 mixed with propylene glycol. […] This 10 ng/ml is a sufficient concentration for a pharmacological effect.

Compound | water solubility [1] | solubility [1] | sufficient concentration for a pharmacological effect ([2]; plasma concentration) | effect in plasma (onset) ([2]; solid formulation, subcutaneous, rabbits, 2.0 mg/kg)
bovine pancreas insulin [BPI] | water insoluble |  |  | 
CCCCNc1ccc(C(=O)OCCN(C)C)cc1 [tetracaine] |  | soluble |  | 
Recombinant human insulin [RHI] | water soluble |  |  | 
COc1ccc(NC(=S)N2CCc3c(sc4c3C(c3ccccc3Cl)=NCc3nnc(C)n3-4)C2)cc1 [BN 50730, 4,7,8,10-tetrahydro-1-methyl-6-(2-chlorphenyl)-9-(4-methoxyphenyl-thiocarbamoyl)-pyrrido-[4',3'-4,5]thieno[3,2-f]-1,2,4-triazolo[4,3-a]1,4-diazepine] |  | insoluble | 10 ng/ml | immediate effect in plasma
